Source: PMC8861878 (The Journal of pharmacy and pharmacology, 2020)
Several values for one entry are separate records, joined by “and”; a condition that tells them apart may be missing. Identical values can stand only once.

Columns and labels:
[1] = target: CYP2C9 (Homo sapiens, UniProt P11712); test: Inhibition of CYP2C9; type: in vitro ADME
[2] = Mono-oxidation of isobavachin by pooled HLM, enzyme kinetics; type: in vitro ADME, human
[3] = target: T1, UGT1A7 (Homo sapiens, UniProt Q9HAW7); test: Glucuronidation of isobavachin by recombinant UGT1A7, enzyme kinetics; type: in vitro ADME; conditions: formation of G1, substrate inhibition model
T1 sequence (Q9HAW7 26-530): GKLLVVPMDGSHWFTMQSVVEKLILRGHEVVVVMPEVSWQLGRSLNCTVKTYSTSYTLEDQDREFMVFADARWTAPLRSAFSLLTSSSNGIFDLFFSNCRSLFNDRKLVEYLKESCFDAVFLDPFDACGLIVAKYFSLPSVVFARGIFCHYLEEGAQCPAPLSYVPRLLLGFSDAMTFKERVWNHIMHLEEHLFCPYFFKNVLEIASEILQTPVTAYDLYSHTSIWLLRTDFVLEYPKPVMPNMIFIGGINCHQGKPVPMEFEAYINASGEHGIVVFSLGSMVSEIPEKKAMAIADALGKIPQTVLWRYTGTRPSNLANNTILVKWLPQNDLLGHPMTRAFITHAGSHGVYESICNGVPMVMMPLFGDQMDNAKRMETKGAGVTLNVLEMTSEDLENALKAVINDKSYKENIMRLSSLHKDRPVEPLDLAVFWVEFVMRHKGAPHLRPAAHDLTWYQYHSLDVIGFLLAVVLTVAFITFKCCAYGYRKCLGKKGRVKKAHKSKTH

Chain of CYP2C9 (P11712 whole entry): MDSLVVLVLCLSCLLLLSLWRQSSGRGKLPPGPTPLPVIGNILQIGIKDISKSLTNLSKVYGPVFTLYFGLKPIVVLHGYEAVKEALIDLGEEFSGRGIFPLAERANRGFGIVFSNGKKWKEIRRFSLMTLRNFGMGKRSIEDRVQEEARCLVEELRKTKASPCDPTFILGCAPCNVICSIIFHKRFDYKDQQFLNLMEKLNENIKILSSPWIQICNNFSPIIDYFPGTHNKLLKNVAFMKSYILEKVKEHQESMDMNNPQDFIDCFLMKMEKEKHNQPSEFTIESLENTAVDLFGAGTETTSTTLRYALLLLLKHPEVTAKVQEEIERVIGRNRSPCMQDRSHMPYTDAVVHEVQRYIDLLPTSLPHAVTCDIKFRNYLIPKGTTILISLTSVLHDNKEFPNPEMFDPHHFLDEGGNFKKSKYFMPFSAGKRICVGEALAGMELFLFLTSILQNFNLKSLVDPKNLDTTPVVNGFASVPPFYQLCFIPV

**Q.** With `CC(C)=CCc1c(O)ccc2c1O[C@H](c1ccc(O)cc1)CC2=O` [isobavachin] as the compound, how does the IC50 [1] read?
**A.** 0.04 ± 0.005 µM

**Q.** And the residual activities ([1]; 10 μM isobavachin)?
**A.** 1.04 % of the negative control

**Q.** What about the Ki ([1]; substrate tolbutamide, mixed-type model (not selected)) of the same compound?
**A.** 0.27 ± 0.1 µM

**Q.** What about the Ki ([1]; substrate tolbutamide, non-competitive model (selected, smallest AIC and SC)) of the same compound?
**A.** 0.22 ± 0.02 µM

**Q.** And the Inhibition type ([1]; based on the smallest AIC and SC values)?
**A.** non-competitive inhibition mode

**Q.** And the α ([1]; substrate tolbutamide, mixed-type model)?
**A.** 0.70 ± 0.49

**Q.** And the “CLint (CLmax)” value ([2]; formation of M1, substrate inhibition model)?
**A.** 59.81 μl/min per mg and 59.81 ± 21.18 μl/min per mg

**Q.** What about the “CLint (CLmax)” value ([2]; formation of M2, Michaelis–Menten model) of the same compound?
**A.** 5.53 ± 0.93 μl/min per mg

**Q.** What about the Ki ([3]; substrate inhibition constant) of the same compound?
**A.** 27.54 ± 5.39 µM

**Q.** And the “CLint (CLmax)” value [3]?
**A.** 109.18 ± 24.17 μl/min per mg

**Q.** And the Vmax [3]?
**A.** 3593.00 ± 487.20 pmol/min per mg
